Test system: formalin-induced pain in Sprague-Dawley rats
Test: Formalin model of acute tonic pain
Format: in vivo, rat
Method: Male Sprague-Dawley rats are housed together in groups of three animals under standard conditions with unrestricted access to food and water. All experiments are conducted according to the ethical guidelines for investigations of experimental pain in conscious animals (Zimmerman, 1983)
Assessment of formalin-induced flinching behavior in normal, uninjured rats (body weight 150-180 g) was made with the use of an Automated Nociception Analyser (University of California, San Diego, USA). Briefly, this involved placing a small C-shaped metal band (10 mm wide×27 mm long) on the hindpaw of the rat to be tested. The rats (four rats were included in each testing session) were then placed in a cylindrical plexiglass observation chamber (diameter 30.5 cm and height 15 cm) for 20 min for adaptation purposes prior to being administered drug or vehicle according to the experimental paradigm being followed. After adaptation, individual rats were then gently restrained and formalin (5% in saline, 50 μl, s.c.) was injected into the plantar surface of the hindpaw using a 27 G needle. Rats were then returned to their separate observation chambers, each of which were in turn situated upon an enclosed detection device consisting of two electromagnetic coils designed to produce an electromagnetic field in which movement of the metal band could be detected. The analogue signal was then digitised and a software algorithm (LabView) applied to enable discrimination of flinching behaviour from other paw movements. A sampling interval of 1 min was used and on the basis of the resulting response patterns 5 phases of nociceptive behaviour were identified and scored: first phase (P1; 0-5 min), interphase (Int; 6-15 min), second phase (P2; […]), phase 2A (P2A; 16-40 min) and phase 2B (P2B; 41-60 min).
Nociceptive behavior was also determined manually every 5 min by measuring the amount of time spent in each of four behavioral categories: 0, treatment of the injected hindpaw is indistinguishable from that of the contralateral paw; 1, the injected paw has little or no weight placed on it; 2, the injected paw is elevated and is not in contact with any surface; 3, the injected paw is licked, bitten, or shaken. A weighted nociceptive score, ranging from 0 to 3 was calculated by multiplying the time spent in each category by the category weight, summing these products, and dividing by the total time for each 5 min block of time. (Coderre et al., Pain 1993; 54: 43). On the basis of the resulting response patterns, 2 phases of nociceptive behavior were identified and scored: first phase (P1; 0-5 min), interphase (Int; 6-15 min), second phase (P2; […]), phase 2A (P2A; 16-40 min) and phase 2B (P2B; 41-60 min).
Statistical analysis was performed using Prism™ 4.01 software package (GraphPad, San Diego, Calif., USA). The difference in response levels between treatment groups and control vehicle group was analyzed using an ANOVA followed by Bonferroni's method for post-hoc pair-wise comparisons. A p value<0.05 was considered to be significant
The effect of Compound A on pain induced by intraplantar formalin injection was investigated. Compound A was administered i.p. 30 min. before the formalin. Compound A was able to reduce the total pain score behavior (flinching, licking, biting) in phase 1 and 2 of the formalin test.

[1] = i.p. 30 min before formalin, n=6-8

COc1ccc(F)cc1-c1cc2c(c3c1CCN(C)C3)NC(=O)C2=NO [Compound A, 5-(5-fluoro-2-methoxyphenyl)-6,7,8,9-tetrahydro-3-(hydroxyimino)-8-methyl-1H-pyrrolo[3,2-h]isoquinoline-2(3H)-one] was tested, and the ED50 (Rattus norvegicus, ip, i.p. 30 min before formalin, read-out: ED50, Phase 2 of the total pain score) was ~12 mg/kg, the “relationship between dose and plasma exposure” value (formalin experiments, i.p.) was “linear relationship” and the “effects on phases 1 and 2, specific pain behaviors (licking and biting) only” value [1] was “quite pronounced”. For the same molecule, the “total pain score behavior (flinching, licking, biting) in phase 1 and 2 of the formalin test” value [1] was “reduce” and the “acute tonic pain induced by formalin injection in the paw” value (rat, in vivo) was “block”.

— patent publication US20090246134A1, “COMPOSITIONS AND METHODS FOR MODULATING GATED ION CHANNELS” (PainCeptor Pharma Corporation, priority 2007, published 2009)
